According to US20060142374A1, “Crystal for oral solid drug and oral solid drug for dysuria treatment containing the same” (KISSEI PHARMACEUTICAL CO., LTD., priority 2002, published 2006):

Legend:
Type in all cases: physicochemical
[1] = Stability to light on preservation; details: content of active ingredient decreases depending on preserved condition with time
[2] = Stability test (appearance by naked eye, purity by liquid chromatography after storage); details: for Stability in respect of purity and appearance: summary of storage conditions 1-4
Protocol: Appearance and purity of each crystal obtained in Examples 1-3 and an amorphous obtained by freeze-drying a solution of KMD-3213 in dioxane were determined after allowing to stand under following conditions. As for appearance, it was determined by color and properties with the naked eye. Purity was determined by integral percentage method with liquid chromatography.
Condition 1: Allowing to stand at 40° C. in the constant temperature device for 28 days
Condition 2: Allowing to stand at 60° C. in the constant temperature device for 28 days
Condition 3: Allowing to stand at 80° C. in the constant temperature device for 25 days
Condition 4: Allowing to stand at 40° C. and relative humidity 75% in the constant temperature device for 28 days
The Liquid Chromatography Condition:
Detector: ultraviolet absorption spectrophotometer (wave length: 225 nm)
Column: Intertsil ODS-3 (GL Science, 5 μm, 4.6 mm×25 cm)
Column temperature: about 25° C.
Mobile Phase: To 3.9 g of sodium dihydrogen phosphate was added 2.5 mL of diluted phosphoric acid solution (1→20) accurately, and water was added to make 1000 mL of a solution accurately. A 5:2 mixed solution of the resulting solution and acetonitrile.

[3] = Moisture absorption test (weight change after storage); details: for Moisture absorption (hygroscopicity): summary, compared with the amorphous
Protocol: In the same manner as that of Test Example 1, the crystals obtained in Examples 1-3 and the amorphous were used for the test. Approximately 1 g of test substance was weighed accurately and put it into a sample vial. After the test substance was allowed to stand in an opening constant temperature and humidity device under following condition, their differences of weights were measured.
Condition 1: Allowing to stand at 25° C. and 60% of relative humidity in the constant temperature and humidity device for 3 days
Condition 2: Allowing to stand at 40° C. and 75% of relative humidity in the constant temperature and humidity device for 3 days

[4] = Condition 1: 40° C. for 28 days
[5] = Condition 2: 60° C. for 28 days
[6] = Condition 3: 80° C. for 25 days
[7] = Condition 4: 40° C. and relative humidity 75% for 28 days
[8] = Initial, liquid chromatography, integral percentage method
[9] = Condition 1: 25° C. and 60% relative humidity for 3 days
[10] = Condition 2: 40° C. and 75% relative humidity for 3 days

Row | SMILES | Stability for light [1] | Appearance [2, 4] | Purity (%) [2, 4] | Appearance [2, 5] | Purity (%) [2, 5] | Appearance [2, 6] | Purity (%) [2, 6] | Appearance [2, 7] | Purity (%) [2, 7] | Appearance ([2]; Initial) | Purity (%) [2, 8] | Change(%) of weight [3, 9] | Change(%) of weight [3, 10] | Stability in respect of purity and appearance ([2]; listed as crystal form a) | Stability in respect of purity and appearance ([2]; listed as crystal form α) | Moisture absorption (hygroscopicity) [3]
1 | C[C@H](Cc1cc2c(c(C(N)=O)c1)N(CCCO)CC2)NCCOc1ccccc1OCC(F)(F)F [KMD-3213] | unstable for light relatively |  |  |  |  |  |  |  |  |  |  |  |  |  |  | 
2 | C[C@H](Cc1cc2c(c(C(N)=O)c1)N(CCCO)CC2)NCCOc1ccccc1OCC(F)(F)F [amorphous, KMD-3213] |  | White powder | 99.66% | Pale yellow | 99.56% | Pale yellowish | 99.53% | White powder | 99.71% | White powder | 99.79% | +1.61% | +1.31% |  |  | 
3 | C[C@H](Cc1cc2c(c(C(N)=O)c1)N(CCCO)CC2)NCCOc1ccccc1OCC(F)(F)F [α, KMD-3213] |  | White powder | 99.84% | White powder | 99.84% | Pale yellow | 99.58% | White powder | 99.85% | White powder | 99.90% | −0.01% | −0.20% | extremely stable | the most stable | absorbing moisture scarcely
4 | C[C@H](Cc1cc2c(c(C(N)=O)c1)N(CCCO)CC2)NCCOc1ccccc1OCC(F)(F)F [β, KMD-3213] |  | Pale yellow powder | 99.73% | Pale yellowish | 99.57% | Pale brown powder | 98.42% | Pale yellow powder | 99.69% | Pale yellow powder | 99.83% | +0.07% | −0.08% |  |  | absorbing moisture scarcely
5 | C[C@H](Cc1cc2c(c(C(N)=O)c1)N(CCCO)CC2)NCCOc1ccccc1OCC(F)(F)F [γ, KMD-3213] |  | Pale yellow powder | 99.85% | Pale yellow powder | 99.84% | Pale yellow powder | 99.64% | Pale yellow powder | 99.85% | Pale yellow powder | 99.88% | 0.00% | −0.19% |  |  | absorbing moisture scarcely
